Reference: US5639904A, “1-aryloxy-3-alkylamino-2-propanol nitrate esters, the use thereof and corresponding pharmaceutical composition” (Prodesfarma, S.A., priority 1993, dated 1997)
Where two headings read alike, the source gives them in different places.

Columns and labels:
Type in all cases: cell-based
[1] = tested on: helical strips of swine coronary artery (potassium-induced contraction); assay: In vitro coronary vasodilator activity: antagonism of contractions induced by potassium (35 mM); conditions: Sus scrofa; for IC50: read-out: inhibitory concentration 50 (IC50), effect on K+-induced contractions in swine coronary artery; for inhibition at 100 µM: read-out: inhibition of K+-induced contractions in swine coronary artery
Description: (§1) The coronary vasodilator activity of the synthesized products was determined in vitro from their capacity to antagonize the contractions induced by a) potassium (35 mM) b) calcium (1.5 mM) and c) serotonin (1 mM) in helical strips of swine coronary artery, using Nitroglycerine and Nicorandil as reference drugs (Table 1).

[2] = tested on: helical strips of swine coronary artery (calcium-induced contraction); assay: In vitro coronary vasodilator activity: antagonism of contractions induced by calcium (1.5 mM); conditions: Sus scrofa; for IC50: read-out: inhibitory concentration 50 (IC50), effect on Ca2+-induced contractions in swine coronary artery
Description: as §1

[3] = tested on: helical strips of swine coronary artery (serotonin-induced contraction); assay: In vitro coronary vasodilator activity: antagonism of contractions induced by serotonin (1 mM); conditions: Sus scrofa; for IC50: read-out: inhibitory concentration 50 (IC50), effect on serotonin-induced contractions in swine coronary artery
Description: as §1

[4] = target: T1, β1-adrenergic (isolated guinea pig left auricle) (Cavia porcellus, UniProt H0W3H1); assay: In vitro β1-adrenergic blocking activity: antagonism of isoprenaline-induced positive inotropic response in electrically stimulated isolated left auricle
T1 construct: electrically stimulated isolated left auricle of the guinea pig; from tissue; host or cells: isolated left auricle of guinea pig
T1 sequence (H0W3H1 1-470): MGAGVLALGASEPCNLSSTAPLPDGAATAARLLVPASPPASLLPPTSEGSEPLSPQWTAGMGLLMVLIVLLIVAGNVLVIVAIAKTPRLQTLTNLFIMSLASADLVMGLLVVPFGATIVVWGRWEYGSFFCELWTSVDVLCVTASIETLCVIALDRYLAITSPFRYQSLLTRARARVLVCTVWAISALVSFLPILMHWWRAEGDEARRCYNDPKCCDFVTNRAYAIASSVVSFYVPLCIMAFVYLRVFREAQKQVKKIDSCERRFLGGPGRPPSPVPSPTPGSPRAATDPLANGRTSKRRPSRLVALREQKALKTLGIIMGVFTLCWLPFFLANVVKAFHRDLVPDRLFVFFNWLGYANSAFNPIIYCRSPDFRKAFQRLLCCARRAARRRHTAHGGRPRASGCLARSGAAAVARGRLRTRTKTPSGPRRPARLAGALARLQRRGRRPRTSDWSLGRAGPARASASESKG
Description: In parallel tests, the effect of the said compounds on the positive isoprenaline-induced inotropic response in electrically stimulated isolated left auricle of the guinea pig, as evidence of β1 -adrenergic blocking activity (Table 2) was established.
BLOCKING ACTIVITY IN VITRO

[5] = electrically stimulated isolated guinea pig left auricle, read-out: inhibitory concentration 50 (IC50), antagonism of isoprenaline-induced positive inotropic response

Row | SMILES | IC50 ([1]; potassium 35 mM) | IC50 ([3]; serotonin 1 mM) | IC50 [4, 5] | further results
1 | CC(C)NCC(O)COc1ccc(COCC(CO[N+](=O)[O-])O[N+](=O)[O-])cc1 (stereo not drawn) [1-isopropylamino-3-[4-(2,3-dinitroxy)-propoxymethyl]phenoxy-2-propanol] | – | – | – | IC50 [1]: 0.5 µM; IC50 [2]: 1.7 µM; IC50 [3]: 1.6 µM; IC50 [4]: 4800 nM
2 | CC(C)NCC(O)COc1ccc(COCCCO[N+](=O)[O-])cc1 (stereo not drawn) [1-isopropylamino-3-[4-(3-nitroxy)propoxymethyl]phenoxy-2-propanol] | 7.1 µM | 6 µM | 700 nM | inhibition at 30 µM ([2]; at 30 μM, calcium 1.5 mM, read-out: inhibition of Ca2+-induced contractions in swine coronary artery): 50%
3 | CC(C)NCC(O)COc1ccc(CC(=O)OCCO[N+](=O)[O-])cc1 (stereo not drawn) [2-nitroxyethyl 4-[(2-hydroxy-3-isopropylamino)propoxy]phenyl acetate] | 0.3 µM | 5.7 µM | 7600 nM | IC50 ([2]; calcium 1.5 mM): 13.1 µM
4 | CC(C)NCC(O)COc1ccc(CC(N)=O)cc1 (stereo not drawn) [Atenolol, reference compound] | – | – | – | inhibition at 100 µM [1]: 25%; IC50 [4]: 700 nM
5 | COCCc1ccc(OCC(O)CNC(C)C)cc1 (stereo not drawn) [Metoprolol, reference compound] | – | – | – | inhibition at 100 µM ([1]; at 0.1 mM, potassium 35 mM): 30%; inhibition at 100 µM ([3]; serotonin 1 mM): 20%
6 | O=C(NCCO[N+](=O)[O-])c1cccnc1 [Nicorandil, reference compound] | 49.7 µM | 14.7 µM | – | IC50 ([2]; calcium 1.5 mM): 169 µM
7 | O=[N+]([O-])OCC(CO[N+](=O)[O-])O[N+](=O)[O-] [Nitroglycerine, reference compound] | 1.3 µM | 1 µM | – | inhibition at 100 µM ([2]; at 0.1 mM, calcium 1.5 mM, read-out: inhibition of Ca2+-induced contractions in swine coronary artery): 50%

More lines, main results first:

Row | IC50 ([1]; potassium 35 mM) | IC50 ([3]; serotonin 1 mM) | IC50 [4, 5] | SMILES | further results
8 | 40.7 µM | – | – | CC(C)NCC(O)COc1c(CC(=O)NCCO[N+](=O)[O-])ccc2ccccc12 (stereo not drawn) [1-(2-hydroxy-3-isopropylamino)propoxy-N-(2-nitroxyethyl)-2-naphthalene acetamide] | –
9 | 3.4 µM | 13.3 µM | 600 nM | CC(C)NCC(O)COc1ccc(COCCO[N+](=O)[O-])cc1 (stereo not drawn) [1-isopropylamino-3-[4-(2-nitroxy)ethoxymethyl]phenoxy-2-propanol] | –
10 | 28.6 µM | – | – | CC(C)NCC(O)COc1ccc2ccccc2c1CC(=O)NCCO[N+](=O)[O-] (stereo not drawn) [2-(2-hydroxy-3-isopropylamino)propoxy-N-(2-nitroxyethyl)-1-naphthalene acetamide] | inhibition at 10 µM ([2]; at 10 μM, calcium 1.5 mM, read-out: inhibition of Ca2+-induced contractions in swine coronary artery): 20%; inhibition at 100 µM ([3]; serotonin 1 mM): 50%; inhibition at 100 µM ([4]; at 0.1 mM, electrically stimulated isolated guinea pig left auricle): 25%
